Series [1] relates to p-MAPKAPK2. The experiment in a line: Inhibition of p-MAPKAPK2 in vitro, anisomycin-stimulated RAW 264.7 cells, ELISA. Format: cell-based, murine. The following applies: Mus musculus, RAW264.7, read-out: IC50, inhibition of p-MAPKAPK2 in vitro. The procedure:
RAW 264.7 cells (a murine monocytic/macrophage line ATCC) are seeded at a density of 50,000 cells/well in 96-well plates with RPMI-1640 medium plus 10% fetal bovine serum (FBS) and allowed to settle and adhere to the bottom of the well for 48 hours. After reaching confluence, cells are treated for 2 hours with 10 serial dilutions of different compounds. A control compound is always included. After 2 hours, anisomicin (100 ug/ml) is added and cells are incubated for 30 minutes at 37° C. under a 5% CO2 atmosphere. Then, cells are fixed and treated with hydrogen peroxide in order to remove endogenous peroxidase. Finally, plates are blocked with FBS, washed, and an ELISA assay is carried out by using an antiphospho-MAPKAPK (Thr 334, Cell Signalling, Cat # 3041) antibody and ahP-Conjugated Secondary Antibody. This reaction is detected by using FEMTO (Pierce) which is an enhanced chemiluminiscent substrate ahP that results in rapid kinetic light output and high signal intensity.
(In general: An ELISA detects its analyte on a solid surface through an enzyme-linked reagent.)

Series [2] can be described thus: Oral exposure in male Fischer 344 rats. Type of series: in vivo. The following applies: rat, 1 mg/kg, fasted, gavage, suspension 1 mg/mL at 1 mL/kg, plasma. Here is the method: Compounds are screened for oral exposure in male Fischer 344 rats. Animals are fasted overnight and administered test compounds prepared as suspensions in sodium carboxymethylcellulose (1% w/v) containing Tween 80 (0.25% v/v) and antifoam (0.1% w/v). Dose suspensions are prepared at 1 mg/mL and administered at 1 mL/kg by gavage. Blood samples are taken between 0.5 h and 7 h after dose administration and plasma are prepared by centrifugation. Plasma samples are analyzed using online solid phase extraction and LC/MS/MS.

Series [3] relates to Phospho-MAPKAPK2. The experiment in a line: Anisomycin-stimulated mice ex-vivo phospho-MAPKAPK2 inhibition assay by flow cytometry. The following applies: female Balb/c mice, po, blood after 2 hours, ex vivo 10 μg/ml anisomycin, CD11b+Ly6G- cells. Type of series: in vivo. Here is the method:
Female Balb/c mice with 8-10 week-old age are purchased from Taconic Inc. and dosed po with 0.2 mL volume of compounds at the concentrations of 30, 10, 3, 1 mg/kg. Blood is obtained from cardiac puncture after 2 hours or other indicated time periods and collected in EDTA-containing tubes. 100 μL of blood is incubated at 37° C. for 10 minutes. Whole blood is then mixed with FITC-conjugated rat anti-mouse Ly-6G mAb (1:250) and APC-conjugated rat anti-mouse CD11b mAb (1:100) and stimulated with 10 μg/ml anisomycin. Both cell surface antigen staining and anisomycin stimulation is conducted at 37° C. for 15 min and followed up with Lyse/Fix buffer (BD Biosciences, Cat#558049) for 10 min at room temperature. Lysed blood samples are spun down at 600×g for 8 minutes at room temperature with additional wash once by 4 mL PBS. 200 μL of diluted anti-Phospho-MAPKAPK-2 (Thr334) antibody (1:100 dilution) (Cell Signaling, Cat#3041) and mouse BD Fc Block (1:100 dilution) (BD Biosciences, 553141) in permeabilization Medium B (Caltag, Catg GAS002S-5) are added into blood cells and incubate at room temperature for 30 minutes. After the incubation, 3 mL of stain/wash buffer is added and cells are spanned down as described above with additional wash with 3 ml stain/wash buffer. […] Mean fluorescence of phosphono-MapKap-K2 staining is measured on gated CD11b+Ly6G-cells. […]
A general note: A flow cytometer gives signals particle by particle.

Series [4] concerns TNFα. The experiment in a line: Effect on intra-articular LPS induced TNFα in rat ankle synovial lavage fluid. Type of series: in vivo. To be noted: female Lewis rats, orally, intra-articular LPS 10 μg one hour later, lavage after two hours. Here is the method:
Intra-articular injection of LPS into rat ankles induces the synthesis of TNFα, which can be measured in synovial lavage fluid. High levels of TNFα are detectable within 2 hours. Since the joint is the site where arthritis develops, this model can rapidly determine whether an orally administered compound has an effect on an inflammatory response in the synovium.
Six female Lewis rats (150-200 g) are place in each treatment group. The animals are given vehicle (1% NaCarboxymethylcellulose-0.25% Tween 80) or test compound
(1 mg/kg, 3 mg/kg, 10 mg/kg, and 30 mg/kg) orally. One hour later, 10 μl LPS (10 μg) is administered intra-articularly into the right ankle of each rat, while the left ankle receives 10 μL of saline. After two hours, each ankle is lavaged with 100 μL of saline. The lavage is collected and stored at −80° C. • Group #1: Vehicle (1% NaCMC-0.25% Tween 80, 1 mL, PO) • Group #2: Test compound (1 mg/kg, 1 mL, PO) • Group #3: Test compound (3 mg/kg, 1 mL, PO) • Group #4: Test compound (10 mg/kg, 1 mL, PO) • Group #5: Test compound (30 mg/kg, 1 mL, PO)
TNFα is measured with a commercially available ELISA kit (R&D, RTA00).

For `CS(=O)(=O)O.Cc1ccc(-n2nc(C(C)(C)C)cc2NC(=O)Nc2ccc(N3CCN(C(=O)c4c(F)cccc4F)CC3)nc2C)cc1` [Example 5, 1-(5-tert-Butyl-2-p-tolyl-2H-pyrazol-3-yl)-3-{6-[4-(2,6-difluoro-benzoyl)-piperazin-1-yl]-2-methyl-pyridin-3-yl}-urea methanesulfonate], in series [1], the IC50 (as a rule, the concentration that inhibits the measured activity by half) is 4.5 nM. For the same compound, the peak concentration (Cmax) (commonly the highest concentration seen after dosing) in series [2] came out at 9390 ng/mL. For the same compound, the AUC(0-t) in series [2] (read-out: AUC(0-7h)) was determined as 36800 ng·h/mL. Also, the “TMED50, inhibition of p-MAPKAPK synthesis” value in series [3] came out at 2.28 mg/kg. For the same compound, the “TMED50, inhibition of TNFα synthesis in synovial lavage fluid” value in series [4] amounted to 3.57 mg/kg.

These data come from patent US7652015B2, “Kinase inhibitors” (Eli Lilly and Company, priority 2006, dated 2010).
